SMILES strings stand for the structures. Like-named read-outs stand apart in the source and are kept apart here.

For assay [1], the system named is BAK-/- mouse embryonic fibroblasts (MEFs). Briefly: Caspase 3/7 assay, STS-induced apoptosis, MEFs expressing only BAX. It is filed as cell-based. The settings on record: 3 µM STS, 6 hr. An excerpt:
FIGS. 7A, 7B, 7C, 7D, 7E, and 7F are a set of diagrams showing that eltrombopag inhibits BAX translocation and BAX-mediated apoptosis in cells. […] BAX translocation is based on antibody-based detection of BAX and mitochondrial protein TOMM20. Representative confocal micrographs from three independent biological experiments. Scale bar, 20 µm. […] Data represent ±SEM of three independent biological replicates. Two-sided t test, ****P < 0.0001; ***P < 0.001; **P < 0.01; *P < 0.05; ns, P > 0.05. […] Actin and VDAC are loading controls for cytosolic and mitochondrial fractions, respectively. FIGS. 7D and 7E show a caspase 3/7 assay of BAK-/- mouse embryonic fibroblasts (MEFs) (FIG. 7D) and BAX-/-MEFs (FIG. 7E) in response to 3 µM STS and the presence or absence of various doses of EO for 6 hr. […]
(§1) It is important to note that THPO-receptor agonist activity of EO is highly specific to the human and chimpanzee THPO-receptors, making mouse cell lines ideal for studying EO modulation of BAX-dependent activity independent of THPO-mediated effects (Erickson-Miller, C. L. et al. Stem Cells 27, 424-430 (2009)). First, mitochondrial cytochrome c release, a hallmark of BAX activation and BAX-dependent apoptosis, was evaluated. […] Next, mitochondrial translocation of cytosolic BAX upon treatment with either BIM BH3 or staurosporine (STS) in BAK KO MEFs was evaluated.

The next assay deals with BAX KO (BAX-/-) MEFs. The assay can be described thus: Cytochrome c release assay (ELISA), BAX KO MEFs. It is filed as cell-based, mouse. The settings on record: BIM-BH3 peptide. As for the experimental part: BAX^-/^- or BAK^-/^- mouse embryonic fibroblasts were maintained in DMEM (Life Technologies) supplemented with 10% FBS, 100 U/mL penicillin/streptomycin, 2 mM I-glutamine, and 0.1 mM MEM nonessential amino acids. MEFs (5×10^4 cells/well) were seeded in a 96 well clear u-bottom plate for 18-24 hr. Media was removed and replaced with media lacking FBS, and cells were treated with varying doses of EO for 2 hours at 37° C. […] Cytochrome c release was determined by decanting 50 µL of the supernatant and analyzing with the rat/mouse cytochrome c quantikine ELISA kit (R&D Systems, MCTO) according to the recommended protocol. […]
as §1

The target in the next assay is T1, BAX (Homo sapiens, UniProt Q07812).
T1 construct: Human full-length (1-192) wild-type BAX (Q07812); made in house; host or cells: E. coli BL21 (DE3) CodonPlus (DE3)-RIPL
T1 sequence (Q07812 whole entry): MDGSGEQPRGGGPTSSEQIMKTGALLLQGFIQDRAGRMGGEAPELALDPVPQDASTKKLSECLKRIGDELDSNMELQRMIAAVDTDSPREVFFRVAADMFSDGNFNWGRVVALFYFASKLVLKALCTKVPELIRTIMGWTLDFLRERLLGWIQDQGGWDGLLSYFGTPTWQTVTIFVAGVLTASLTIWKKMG
The assay can be described thus: Liposomal permeabilization (ANTS/DPX release) assay. It is filed as biochemical. The settings on record: for IC50: 30 minutes. The procedure: Lipids (Avanti Polar Lipids) at the following ratio, phosphatidylcholine 48%, phosphatidylinositol 10%, dioleoyl phosphatidylserine 10%, phosphatidylethanolamine, 28%, and tetraoleoyl cardiolipin 4%, were mixed in a total of 1 mg, dried and resuspended in 10 mM HEPES, pH 7, 200 mM KCI, and 5 mM MgCl2 with 12.5 mM 8-aminonaphthalene-1,3,6-trisulfonic acid (ANTS) dye and 45 mM p-xylene-bis-pyridinium bromide (DPX) quencher (Molecular Probes) using a water bath sonicator. Liposomes were formed by extrusion of the suspension using Avanti Mini-Extruder (Cat # 610000) with polycarbonate membranes of 0.1 µm pore size (Avanti Polar Lipids). ANTS/DPX encapsulated liposomes were purified from non-encapsulated ANTS/DPX by gel filtration of a 10 mL CL2B-Sepharose (GE Healthcare Life Sciences) gravity-flow column. BAX (50-250 nM) was combined with tBID, BIM, and EO at the indicated concentrations to a volume of 90 µL. Reactions were initiated by the addition of […] of the encapsulated ANTS/DPX liposome stock. ANTS/DPX release was quantified based on the increase in fluorescence intensity that occurs when the ANTS fluorophore is separated from the DPX quencher upon release from the liposomes into solution. Fluorescence (λex = 355 nm and λem = 520 nm) was measured at 1 minute intervals at room temperature (22-25° C.) indicated using a Tecan Infinite M1000 plate reader. In the case of heat activation, reactions were set up as described in the absence of tBID or BIM, and experiments were recorded at 42° C. The percentage release of ANTS/DPX at any given time point was calculated as percentage release=((F-F0)/(F100-F0))(100), where F0 and F100 are baseline and maximal fluorescence, respectively. Triton X-100 (1%) was used to determine the maximum amount of liposomal release per assay and was set to 100%.
Next, EO’s capacity to modulate BAX activity was evaluated using liposomal release assays. […] Instead, EO was able to inhibit both tBID- and BIM BH3-mediated BAX activation (FIGS. 1E, 1F, and 1G). Inhibition of tBID-mediated BAX activation by EO was inversely proportional to the concentration of the tBID activator, consistent with competitive inhibition of BH3-activator binding.

In the case of `CC1=NN(c2ccc(C)c(C)c2)C(=O)/C1=N\Nc1cccc(-c2cccc(C(=O)O)c2)c1O` [EO, eltrombopag], in assay [1], the “STS-induced apoptosis mediated by caspase 3/7 activity” value is on record as “inhibited STS-induced apoptosis”. In addition, in the assay with BAX KO (BAX-/-) MEFs, the “BIM-BH3 induced release of cytochrome c” value is reported as “no such effect”. For the same compound, the IC50 at BAX (50 nM BAX and 5 nM tBID, read-out: tBID IC50, inhibition of BAX activity in liposomal release) came out at 2.4 µM; at BAX (50 nM BAX, read-out: BIM IC50, inhibition of BAX activity in liposomal release), 4.7 µM; on BAX (250 nM BAX at 42° C., read-out: heat IC50, inhibition of BAX activity in liposomal release), 4.5 µM. Besides, the “ability to activate BAX in liposomal release assay” value at BAX (concentrations up to 10 µM, no activator) is listed as “no ability to activate BAX”.

Source of the values: patent US20230270721A1, “INHIBITION OF BAX-MEDIATED CELL DEATH BY ELTROMBOPAG” (Albert Einstein College of Medicine, priority 2020, published 2023).
